The source of these data is patent US20070276034A1, “Compounds, compositions and methods for the treatment of synucleinopathies” (priority 2002, published 2007).

Type in all cases: biochemical
The target in one test is T1, Aβ 1-42 fibrils (Homo sapiens, UniProt P05067).
T1 construct: purchased Bachem Inc
Put plainly: Thioflavin T fluorometry - disruption of pre-formed Aβ 1-42 Alzheimer's fibrils. To be noted: 25 μM pre-fibrillized Aβ 1-42, 37° C., 3 days, read-out: % Inhibition Aβ (result ± S.D.). The source says: In one study, Thioflavin T fluorometry was used to determine the effects of the compounds, and of EDTA (as a negative control). In this assay Thioflavin T binds specifically to fibrillar amyloid, and this binding produces a fluorescence enhancement at 485 nm that is directly proportional to the amount of amyloid fibrils formed. The higher the fluorescence, the greater the amount of amyloid fibrils formed (Naki et al., Lab. Invest. 65:104-110, 1991; Levine III, Protein Sci. 2:404-410, 1993; Amyloid: Int. J. Exp. Clin. Invest. 2:1-6, 1995).
(§1) In this study, 25 μM of pre-fibrillized Aβ 1-42 (Bachem Inc) was incubated at 37° C. for 3 days either alone, or in the presence of one of the compounds or EDTA (at Aβ:test compound weight ratios of 1:1, 1:0.1, 1:0.01 or 1:0.001). Following 3-days of co-incubation, 50 μl of each incubation mixture was transferred into a 96-well microtiter plate containing 150 μl of distilled water and 50 μl of a Thioflavin T solution (i.e. 500 mM Thioflavin T in 250 mM phosphate buffer, pH 6.8). The fluorescence was read at 485 nm (444 nm excitation wavelength) using an ELISA plate fluorometer after subtraction with buffer alone or compound alone, as blank.

The target of test [1] is T2, IAPP fibrils (Homo sapiens, UniProt P10997).
T2 construct: purchased Bachem Inc
T2 sequence (P10997 34-70 limits assumed): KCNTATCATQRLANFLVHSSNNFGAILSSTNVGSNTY
The experiment in a line: Congo red binding assay with IAPP fibrils. To be noted: 3-day incubation. How it is done:
In the Congo red binding assay the ability of a given test compound to alter amyloid (in this case, IAPP) binding to Congo red is quantified. In this assay, IAPP and test compounds were incubated for 3 days and then vacuum filtered through a 0.2 μm filter. The amount of IAPP retained in the filter was then quantitated following staining of the filter with Congo red. After appropriate washing of the filter, any lowering of the Congo red color on the filter in the presence of the test compound (compared to the Congo red staining of the amyloid protein in the absence of the test compound) was indicative of the test compound's ability to diminish/alter the amount of aggregated and congophilic IAPP.
In the study, the ability of IAPP fibrils to bind Congo red in the absence or presence of increasing amounts of the compounds or EDTA (at IAPP:test compound weight ratios of 1:1, 1:0.1, 1:0.01 or 1:0.001) was determined.

Test [2] addresses T2, IAPP fibrils. The experiment in a line: Thioflavin T fluorometry - disruption of type 2 diabetes IAPP fibrils. Conditions: 25 μM pre-fibrillized IAPP, 37° C., 3 days, read-out: % Inhibition IAPP (result ± S.D.). The protocol: In this assay Thioflavin T binds specifically to fibrillar amyloid, and this binding produces a fluorescence enhancement at 485 nm that is directly proportional to the amount of IAPP fibrils present. The higher the fluorescence, the greater the amount of IAPP fibrils present (Naki et al, Lab. Invest. 65:104-110, 1991; Levine III, Protein Sci. 2:404-410, 1993; Amyloid: Int. J. Exp. Clin. Invest. 2:1-6, 1995).
as §1, with “IAPP” for “Aβ 1-42”, “IAPP:test” for “Aβ:test”

In a further test the target is T3, monomeric Aβ 1-42 (Homo sapiens, UniProt P05067).
T3 construct: purchased Bachem Inc
T3 sequence (P05067 672-713): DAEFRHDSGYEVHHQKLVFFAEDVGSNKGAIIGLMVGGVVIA
The experiment in a line: SDS-PAGE/Western blot of Aβ 1-42 after incubation with compounds. Conditions: 25 μM pre-fibrillized Aβ 1-42, 37° C., 3 days, 0.2 μm filtrate, antibody 6E10. The protocol:
In this latter study, triplicate samples of pre-fibrillized Aβ 1-42 (25 μM) was incubated at 37° C. for 3 days, alone or in the presence of the compounds or EDTA. Five micrograms of each sample was then filtered through a 0.2 μm filter. Protein recovered from the filtrate was then loaded, and ran on a 10-20% Tris-Tricine SDS-PAGE, blotted to nitrocellulose and detected using an Aβ-antibody (clone 6E10; Senetek).

For a further test, the target named is T4, NAC fibrils (Homo sapiens, UniProt P37840).
T4 construct: NAC is a 35-amino acid fragment of α-synuclein; purchased Bachem Inc
Put plainly: Thioflavin T fluorometry - disruption of Parkinson's disease NAC fibrils. Conditions: 3 days; for inhibition: 25 μM pre-fibrillized NAC, 37° C., read-out: % Inhibition NAC (result ± S.D.). How it is done: In this assay, Thioflavin T binds specifically to NAC fibrils, and this binding produces a fluorescence enhancement at 485 nm that is directly proportional to the amount of NAC fibrils present. The higher the fluorescence, the greater the amount of NAC fibrils present (Naki et al, Lab. Invest. 65:104-110, 1991; Levine III, Protein Sci. 2:404-410, 1993; Amyloid: Int. J. Exp. Clin. Invest. 2:1-6, 1995).
In this study, 25 μM of pre-fibrillized NAC (Bachem Inc) was incubated at 37° C. for 3 days either alone or in the presence of dihydroxy synthetic analog compounds #1, 3, 23, 26, 52, 63, 66, 67, or EDTA (at NAC:test compound weight ratios of 1:1, 1:0.1, 1:0.01 or 1:0.001). Following 3-days of co-incubation, 50 βl of each incubation mixture was transferred into a 96-well microtiter plate containing 150 μl of distilled water and 50 μl of a Thioflavin T solution (i.e. 500 mM Thioflavin T in 250 mM phosphate buffer, pH 6.8). The fluorescence was read at 485 nm (444 nm excitation wavelength) using an ELISA plate fluorometer after subtraction with buffer alone or compound alone, as blank.

The mark [3] stands for this setting: Aβ:test compound wt/wt ratio 1:0.001.
The mark [4] stands for this setting: Aβ:test compound wt/wt ratio 1:0.01.
[5] abbreviates: Aβ:test compound wt/wt ratio 1:0.1.
Setting [6] is: Aβ:test compound wt/wt ratio 1:1.
Where [7] appears, read: IAPP:test compound wt/wt ratio 1:0.001.
The mark [8] stands for this setting: IAPP:test compound wt/wt ratio 1:0.01.
The mark [9] stands for this setting: IAPP:test compound wt/wt ratio 1:0.1.
Where [10] appears, read: IAPP:test compound wt/wt ratio 1:1.

Molecules are shown by their SMILES. Where two headings read alike, the source gives them in different places.

T1 sequence (P05067 672-713): as above

Regarding `Oc1ccc(CNCc2ccc(O)c(O)c2)cc1O` [Compound 73, bis(3,4-dihydroxybenzyl)amine], the inhibition at Aβ 1-42 fibrils (setting [3]) was 0%; on Aβ 1-42 fibrils (setting [4]), 28.7 ± 10.3%; at Aβ 1-42 fibrils (setting [5]), 70.9 ± 3.04%; at Aβ 1-42 fibrils (setting [6]), 99.4 ± 0.42%.
For `Oc1ccc(CN(Cc2ccc(O)c(O)c2)Cc2ccc(O)c(O)c2)cc1O` [Compound 75, tris(3,4-dihydroxybenzyl)amine], the “% Inhibition IAPP (result ± S.D.), Congo red binding” value (“% Inhibition IAPP” for short) at IAPP fibrils [1] (setting [7]) is recorded as 2.9 ± 0.69%; at IAPP fibrils [1] (setting [8]), 11.3 ± 2.24%; at IAPP fibrils [1] (setting [9]), 7.4 ± 0.70%; at IAPP fibrils [1] (setting [10]) it was 49.0 ± 1.17%. For the same compound, the inhibition on IAPP fibrils [2] (setting [7]) is 6 ± 6.46%; at IAPP fibrils [2] (setting [8]) it was 43.9 ± 5.34%; on IAPP fibrils [2] (setting [9]) it was 90 ± 0.27%; at IAPP fibrils [2] (setting [10]), 100 ± 0.35%; on Aβ 1-42 fibrils (setting [3]) it was 17 ± 4.2%; on Aβ 1-42 fibrils (setting [4]), 31.6 ± 4.74%. In addition, the inhibition on Aβ 1-42 fibrils (setting [5]) stood at 84.4 ± 0.94%; at Aβ 1-42 fibrils (setting [6]), 99 ± 0.63%. Besides, at monomeric Aβ 1-42, the “detection of Aβ 1-42 monomers (~4 kilodalton band) on Western blot” value was “not detected”.
Turning to `Cc1nc(-c2ccc(O)c(O)c2)cc(-c2ccc(O)c(O)c2)c1C#N` [Compound 8, 4,6-bis(3,4-dihydroxyphenyl)-3-cyano-2-methylpyridine], the “% Inhibition IAPP” value on IAPP fibrils [1] (setting [7]) was found to be 0.0 ± 6.46%; on IAPP fibrils [1] (setting [8]), 7.2 ± 2.27%; on IAPP fibrils [1] (setting [9]) it was 0.0 ± 2.94%; at IAPP fibrils [1] (setting [10]) it was 0.0 ± 2.84%. Moreover, the inhibition at IAPP fibrils [2] (setting [7]) was determined as 11.4 ± 12.8%; on IAPP fibrils [2] (setting [8]), 29.6 ± 5.97%; on IAPP fibrils [2] (setting [9]), 67.8 ± 1.74%; at IAPP fibrils [2] (setting [10]), 72.8 ± 1.77%; at Aβ 1-42 fibrils (setting [3]) it was 4.9 ± 2.27%; on Aβ 1-42 fibrils (setting [4]) it was 24.7 ± 3.51%. In addition, the inhibition on Aβ 1-42 fibrils (setting [5]) amounted to 65.5 ± 0.17%; on Aβ 1-42 fibrils (setting [6]) it was 70.8 ± 2.57%.
Take `Oc1ccc(CN2CCN(Cc3ccc(O)c(O)c3)CC2)cc1O` [Compound 9, 1,4-bis(3,4-dihydroxybenzyl)piperazine]: the inhibition on Aβ 1-42 fibrils (setting [3]) is 10.6 ± 0.93%; on Aβ 1-42 fibrils (setting [4]), 2 ± 10.8%; on Aβ 1-42 fibrils (setting [5]) it was 34.9 ± 1.69%; at Aβ 1-42 fibrils (setting [6]), 95.1 ± 0.13%.
As for `O=C(NCc1ccc(O)c(O)c1)c1ccc(O)c(O)c1` [Compound 52, 3,4-dihydroxybenzoic acid 3,4-dihydroxybenzylamide], the “% Inhibition IAPP” value at IAPP fibrils [1] (setting [7]) came out at 10.2 ± 0.52%; on IAPP fibrils [1] (setting [8]), 11.0 ± 3.27%; at IAPP fibrils [1] (setting [9]), 11.5 ± 1.21%; at IAPP fibrils [1] (setting [10]) it was 31.3 ± 0.27%. The inhibition was 16 ± 8.42% on IAPP fibrils [2] (setting [7]); 49.2 ± 4.47% on IAPP fibrils [2] (setting [8]); 86.9 ± 3.09% at IAPP fibrils [2] (setting [9]); 97.9 ± 0.19% on IAPP fibrils [2] (setting [10]); 0% on Aβ 1-42 fibrils (setting [3]); 12.1 ± 0.78% on Aβ 1-42 fibrils (setting [4]). For the same compound, the inhibition on Aβ 1-42 fibrils (setting [5]) was determined as 53.6 ± 2.42%; at Aβ 1-42 fibrils (setting [6]), 93.7 ± 0.41%; at NAC fibrils (NAC:test compound wt/wt ratio 1:0.001), 13.8 ± 10.5%; on NAC fibrils (NAC:test compound wt/wt ratio 1:0.01) it was 79.6 ± 6.43%; on NAC fibrils (NAC:test compound wt/wt ratio 1:0.1) it was 89.2 ± 1.49%; at NAC fibrils (NAC:test compound wt/wt ratio 1:1), 99.7 ± 1.93%. On NAC fibrils (all concentrations tested (ratios 1:1 to 1:0.001)), the “disruption/disassembly of pre-formed NAC fibrils (in words)” value was “dose-dependent disruption/disassembly”.
With `O=C(CCc1ccc(O)c(O)c1)Nc1ccc(O)c(O)c1` [Compound 57, 3-(3,4-dihydroxyphenyl)propionic acid 3,4-dihydroxyanilide], the “% Inhibition IAPP” value at IAPP fibrils [1] (setting [7]) came out at 4.5 ± 0.64%; on IAPP fibrils [1] (setting [8]), 8.5 ± 3.19%; on IAPP fibrils [1] (setting [9]) it was 8.9 ± 3.90%; at IAPP fibrils [1] (setting [10]) it was 15.7 ± 3.77%. Also, the inhibition on IAPP fibrils [2] (setting [7]) was found to be 1.9 ± 5.24%; at IAPP fibrils [2] (setting [8]) it was 37.3 ± 0.78%; at IAPP fibrils [2] (setting [9]), 73.2 ± 1.19%; on IAPP fibrils [2] (setting [10]) it was 94.1 ± 0.46%; at Aβ 1-42 fibrils (setting [3]) it was 17.7 ± 7.43%; on Aβ 1-42 fibrils (setting [4]), 19 ± 6.33%. In addition, the inhibition at Aβ 1-42 fibrils (setting [5]) turned out to be 60.2 ± 3.12%; at Aβ 1-42 fibrils (setting [6]) it was 88.4 ± 2.73%.

In general, inhibition refers to the drop in the measured response relative to a control, in per cent.
